Experimental data published in patent US10442813B2, “Polymorphs of rucaparib camsylate and methods of making same” (RK Pharma Solutions LLC, priority 2018, dated 2019).
Where a name gives a salt, the structure may show the parent alone. Read-outs that look alike come from different tables or passages of the source.

Assay: Solubility of rucaparib camsylate Form beta in USP standard buffers adjusted to different pHs, 37° C.
Format: physicochemical
Experimental: The solubility of rucaparib camsylate Form beta was investigated in USP standard buffers adjusted to different pHs. For pH 1.2, the buffer solution included 3.73 g of potassium chloride dissolved in 100 ml of water which was mixed with […] of 0.2 M hydrochloric acid. Water was added to bring the volume to 1000 ml. For pH 4.5, the buffer solution included 2.99 g of sodium acetate dissolved in 100 ml of water which was mixed with 14 ml of 2 N acetic acid. Water was added to bring the volume to 1000 ml. For pH 6.0, the buffer preparation included 6.80 g of potassium phosphate dissolved in 100 ml of water which was mixed with 28 ml of 0.2 M sodium hydroxide. Water was added to bring the volume to 1000 ml. For pH 6.8, the buffer preparation included 6.80 g of potassium phosphate dissolved in 100 ml of water, which was mixed with 112 ml of 0.2 M sodium hydroxide. Water was added to volume of 1000 ml. For pH 8.0, the buffer preparation included 3.09 of boric acid and 3.73 g of potassium chloride dissolved in 100 ml of water, which was mixed with 19.5 ml of 0.2 sodium hydroxide. Water was added to bring volume to 1000 ml.

solubility (USP buffer pH 8.0, 37° C.): Very slightly soluble | solubility (USP buffer pH 8.0, 37° C., listed as rucaparib camsylate Form beta): slightly soluble | solubility (USP standard buffer pH 1.2, simulated gastric fluid, thermodynamic from solid, USP buffer pH 1.2, 37° C., read-out: Solubility): < 100 µg/mL | solubility (USP standard buffer pH 4.5, aqueous buffer, thermodynamic from solid, USP buffer pH 4.5, 37° C., read-out: Solubility): < 100 µg/mL | solubility (USP standard buffer pH 6.0, aqueous buffer, thermodynamic from solid, USP buffer pH 6.0, 37° C., read-out: Solubility): < 100 µg/mL | solubility (USP standard buffer pH 6.8, aqueous buffer, thermodynamic from solid, USP buffer pH 6.8, 37° C., read-out: Solubility): < 100 µg/mL | solubility (most pH values (all tested except pH 8)): practically insoluble | solubility (thermodynamic from solid, Water, 37° C., read-out: Solubility): < 100 µg/mL
Compound: CNCc1ccc(-c2[nH]c3cc(F)cc4c3c2CCNC4=O)cc1 [Rucaparib Form beta, 8-fluoro-2-{4-[(methylamino)methyl]phenyl}-1,3,4,5-tetrahydro-6H-azepino[5,4,3-cd]indol-6-one ((1S,4R)-7,7dimethyl-2-oxobicyclo[2.2.1]hept-1-yl)methanesulfonic acid salt]
